In US5965126A, “use of mutant alkyltransferases for gene therapy to protect from toxicity of therapeutic alkylating agents” (priority 1996, dated 1999):
Residue numbers refer to the chain shown, from its start.

Columns and labels:
[1] = biological target: T1, AGT (Homo sapiens, UniProt P16455); assay: In vitro screen of potential AGT-inhibiting BG analogs; conditions: versus BG and BGs modified at the benzyl ring
T1 sequence (P16455 1-207): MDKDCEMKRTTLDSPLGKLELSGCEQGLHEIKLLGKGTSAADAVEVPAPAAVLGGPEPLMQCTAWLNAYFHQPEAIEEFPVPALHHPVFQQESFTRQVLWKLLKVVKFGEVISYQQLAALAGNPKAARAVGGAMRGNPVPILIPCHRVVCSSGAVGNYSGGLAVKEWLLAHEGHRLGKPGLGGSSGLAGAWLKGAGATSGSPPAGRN
Excerpt: (§1) Another embodiment of the present invention relates to the use of a mutant AGT protein, preferably a human AGT protein, resistant to inactivation by a compound shown to inactivate or at least substantially inactivate the DNA repair function of wild type AGT which include, but again are in no way limited to the O^6 -substituted guanosine and 2' deoxyguanisine compounds disclosed in U.S. Pat. No. 5,352,669 issued to Moschel, et al. on Oct. 4, 1994. […] Furthermore, escalation of the dBG dose was not restricted by solubility as with BG. Therefore, this class of compounds, as exemplified by dBG, will be useful in practicing the present invention whereby the skilled artisan identifies a related AGT mutant which imparts resistance to addition of dBG both in vitro and in vivo.

[2] = tested on: xenograft; assay: In vivo xenograft system, potentiation of BCNU
Excerpt: as §1

[3] = Solubility in aqueous media; format: physicochemical
Excerpt: as §1

[4] = tested on: Control CHO cells; assay: Colony forming assay, killing of control CHO cells by BCNU; format: cell-based, Chinese hamster; conditions: 2 h, after 80 μM BCNU, read-out: survival
Description: (§2) Control CHO cells (.tangle-solidup.) and CHO cells expressing human AGT (.smallcircle.) or its mutants P140A (.circle-solid.) and G156A (.quadrature.) were treated with BCNU at the concentration shown for 2 h. The medium was then replaced. After 16-18 h, the cells were replated as described in Example Section 6 and colonies were counted 7-8 days later.
(§3) Cytotoxicity assays--Cell killing was determined using a colony forming assay (Pegg, et al., 1995, Biochem. Pharmacol. 50: 1141-1148; Dolan, et al., 1986, Cancer Res. 46: 4500-4504). The cells were plated using 10^6 cells per 25 cm^2 flask and grown for 24 h. After 2 h of incubation with either BG or 5-nitroso-BP, 80 μM BCNU was added for 2 h. The medium was then replaced with fresh medium also containing the AGT inactivator and the cells were left at 37° C. for an additional 16-18 h. The cells were then replated at densities of 100 to 1000 cells per 25 cm^2 flask and grown for 7-8 days until discrete colonies could be stained and counted. The colonies were washed with 0.9% saline and stained with crystal violet and counted.

[5] = tested on: CHO cells expressing control or mutant AGT; assay: Colony forming assay, killing by BCNU of transfected CHO cells expressing control or mutant AGT; format: cell-based, Chinese hamster; conditions: up to 100 μM BCNU, highest concentration tested
Description: as §2, §3

[6] = tested on: ΔMGMT transduced K562 cells; assay: Clonogenic survival in methylcellulose after BG and BCNU, ΔMGMT transduced K562 cells; format: cell-based, human
[7] = tested on: wtMGMT transduced K562 cells; assay: Clonogenic survival in methylcellulose after BG and BCNU, wtMGMT transduced K562 cells; format: cell-based, human
[8] = tested on: untransduced K562 cells; assay: Clonogenic survival in methylcellulose after BG and BCNU, untransduced K562 cells; format: cell-based; conditions: Homo sapiens
[9] = tested on: ΔMGMT transduced CD34^+ cells; assay: Clonogenic progenitor survival after BG and BCNU, ΔMGMT transduced CD34+ cells
Description: (§4) CD34^+ Transduction--Peripheral blood mononuclear cells were obtained by apheresis from patients treated with cyclophosphamide and G-CSF. CD34^+ progenitors were isolated using the Ceprate SC Stem Cell Concentrator (Cell Pro, Bothell, Wash.) according to manufacturer's directions. Briefly, cells were washed and incubated with biotinylated anti-CD34 antibody, passed over an avidin column and the bound fraction eluted by gentle agitation. […] At 48 hours, half of the media was removed, cells were pelleted and resuspended in fresh, supplemented media, and non-adherent cells were collected at 96 hours.
(§5) BCNU was dissolved in 100% ethanol and diluted to 10 mM with serum free media and immediately added to the cells. Following a two hour incubation at 37° C., cells were incubated in methylcellulose (Stem Cell Technologies, Inc.) containing either SCF, IL3, hemin, erythropoietin, GM-CSF (for CD34^+ cells) or GM-CSF and IL-3 (for K562 cells) in triplicate. […] After incubation for 7-10 days at 37° C. colonies were enumerated and survival was analyzed at each BCNU dose.

[10] = tested on: lac Z transduced hematopoietic progenitor cells; assay: Clonogenic progenitor survival after BG and BCNU, lac Z transduced CD34+ cells; conditions: 10 μM BG and 10 μM BCNU, lac Z transduced progenitors
Description: as §4, §5

[11] = biological target: T2, human AGT mutant P140A (Homo sapiens, UniProt P16455, P140A); assay: Inactivation of cellular AGT in CHO cells expressing mutant P140A (CHO-P140A); format: cell-based; conditions: for Increase of ED50 with P140A AGT: relative to control AGT in CHO cells, 240 min
T2 construct: expressed in transfected cells; host or cells: Chinese hamster ovary (CHO) cells
T2 sequence (P16455 1-207 P140A): T1 sequence (P16455 1-207) with P140A
Description: (§6) The cells were then harvested and the AGT activity determined.
(§7) AGT activity assays--Extracts were prepared and AGT activity was determined as described by Dolan et al. (Dolan, et al., 1990, Proc. Natl. Acad. Sci. U.S.A. 87: 5368-5372) by incubation for 30 min at 37° C. with a [^3 H]methylated calf thymus DNA substrate prepared by reaction of DNA with N-[^3 H]methyl-N-nitrosourea (Amersham Inc., Arlington Hts., Ill.). The AGT activity of the cells was then expressed as fmol of O^6 -methylguanine removed per mg of protein present in the cell extracts. Protein was determined by the method of Bradford (Bradford, 1976, Anal. Biochem. 72: 248-254). […] After 4 h exposure, the cells were harvested and washed with PBS. Cell pellets were stored at -80° C. until assayed. Extracts were then prepared and AGT activity determined. The results were expressed as the percentage of the AGT activity present in cultures to which no drug was added.

[12] = biological target: T3, human AGT mutant G156A (Homo sapiens, UniProt P16455, G156A); assay: Inactivation of cellular AGT in CHO cells expressing mutant G156A (CHO-G156A); format: cell-based; conditions: for Increase of ED50 with G156A AGT: relative to control AGT in CHO cells, 240 min
T3 construct: expressed in transfected cells; host or cells: Chinese hamster ovary (CHO) cells
T3 sequence (P16455 1-207 G156A): T1 sequence (P16455 1-207) with G156A
Description: as §6, §7

[13] = tested on: CHO cells expressing control AGT; assay: Sensitization to killing by 80 μM BCNU, colony forming assay, CHO cells expressing control AGT; format: cell-based, Chinese hamster; conditions: with 80 μM BCNU
Description: (§8) FIG. 6a and FIG. 6b show the effect of different concentrations of BG (FIG. 6a) and 5-nitroso-BP (FIG. 6b) on killing of cells by BCNU. Cells were treated with BG or 5-nitroso-BP at the concentrations indicated for 2 h and BCNU at 80 μM was added for 2 h. Medium was replaced with fresh medium also containing the AGT inhibitor but not BCNU for the period of 18 h. The cells were then replated as described in materials and methods and colonies were counted 7-8 days later.
as §3

[14] = tested on: CHO cells expressing P140A AGT; assay: Sensitization to killing by 80 μM BCNU, colony forming assay, CHO cells expressing P140A AGT; format: cell-based, Chinese hamster; conditions: with 80 μM BCNU
Description: as §8, §3

[15] = tested on: CHO cells expressing G156A AGT; assay: Sensitization to killing by 80 μM BCNU, colony forming assay, CHO cells expressing G156A AGT; format: cell-based, Chinese hamster
Description: as §8, §3

[16] = tested on: AGT; conditions: HT29 cells; read-out: Inactivation of AGT, ED50 after 4 h exposure; cited from earlier work
[17] = biological target: T4, ΔAGT (G156A) (Homo sapiens, UniProt P16455, G156A); assay: cell-based; conditions: K562, read-out: AGT activity retained
T4 sequence (P16455 1-207 G156A): T1 sequence (P16455 1-207) with G156A
Description: (§9) AGT Assay--AGT activity was measured as [^3 H]-methyl groups removed from [^3 H] O^6 -methylguanine present in [^3 H]-methylnitrosourea treated alkylated calf thymus DNA. The alkylated [^3 H-methyl] O^6 methylguanine and N^7 methylguanine bases were separated by HPLC and quantified by liquid scintillation. AGT activity was expressed as fmol O^6 mG removed/μg DNA or fmol O^6 removed/mgprotein.

[18] = biological target: T5, wtAGT (Homo sapiens, UniProt P16455); assay: BG inactivation of AGT in wtMGMT transduced K562 cells; conditions: 5 μM BG
T5 sequence (P16455 1-207): T1 sequence (P16455 1-207)
Description: as §9

[19] = tested on: CHO cells expressing mutant AGTs; assay: Effect of AGT inhibitors alone on colony formation; format: cell-based, Chinese hamster; conditions: inhibitor alone, 18-20 h, cells expressing G156A
Description: FIG. 5 show the effect of different concentrations of BG and 5-nitroso-BP on colony formation. BG was added to CHO cells expressing mutant AGTs P140 (.circle-solid.) and G156A (.quadrature.) and 5-nitroso-BP was added to cells expressing G156A (.box-solid.) for 18-20 h. The cells were then replated as described in materials and methods and colonies were counted 7-8 days later.
as §3

[20] = biological target: T1, AGT; assay: Inactivation of cellular AGT in CHO cells expressing human AGT (CHO-AGT); format: cell-based; set-up: expressed in transfected cells; host or cells: Chinese hamster ovary (CHO) cells; conditions: read-out: Inactivation of AGT, ED50 after 4 h exposure
Description: as §6, §7

[21] = Homo sapiens, K562, read-out: BCNU IC50, clonogenic survival
[22] = Homo sapiens, K562, read-out: BCNU IC90, clonogenic survival

In the case of `Nc1nc(OCc2ccccc2)c2ncn([C@H]3C[C@H](O)[C@@H](CO)O3)c2n1` [dBG], the “potency relative to BG (less potent)” value [1] is reported as 10 fold, the “BCNU-potentiating effects compared with BG” value [2] is reported as “quite comparable” and the “solubility in aqueous media compared to other BGs” value [3] is reported as “superior solubility”.
With `O=NN(CCCl)C(=O)NCCCl` [BCNU, N,N'-bis(2-cholorethyl)-N-nitrosourea] the viability at 80 µM [4] was < 0.1%, the “killing by BCNU” value [5] was “completely resistant” and the clonogenic survival ([6]; 30 μM BCNU & BG, ΔMGMT K562 cells) was 20%. For the same compound, the IC50 [6, 21] was 11.3 µM, the IC90 [6, 22] was > 30 µM and the clonogenic survival ([7]; 30 μM BCNU & BG, wtMGMT K562 cells) was < 1%. For the same compound, the IC50 [7, 21] was 4 µM, the IC90 [7, 22] was 16 µM and the IC50 ([8]; K562, read-out: BCNU IC50, clonogenic survival) was 1.3 µM. The IC90 ([8]; K562, read-out: BCNU IC90, clonogenic survival) was 5 µM, the cells resistant ([9]; 10 μM BG and 10 μM BCNU, ΔMGMT transduced CD34+) was “approximately 25%” and the “colonies very resistant to BG & BCNU” value ([9]; ΔMGMT transduced CD34+ derived colonies) was “Over 30%”. For the same compound, the cells killed [10] was “greater than 99%”.
With `Nc1nc(OCc2ccccc2)c2[nH]cnc2n1` [BG, O^6 -benzylguanine] the “Increase of ED50 with P140A AGT” value [11] was 30 fold, the “Increase of ED50 with G156A AGT” value [12] was 60 fold and the “concentration required to reduce colony formation to <1 per 1000 cells plated” value [13] was 50 µM. The “concentration needed to reduce colony formation to <1 per 1000 cells plated” value [14] was 200 µM, the “survival under combined BG and BCNU” value ([15]; 350 μM BG with 80 μM BCNU) was “substantial survival” and the IC50 [16] was 0.05 µM. The activity at 5 µM [17] was > 90% and the AGT activity [18] was “undetectable”.
In the case of `Nc1nc(N)c(N=O)c(OCc2ccccc2)n1` [5-nitroso-BP, 2,4-diamino-6benzyloxy-5-nitrosopyrimidine], the IC50 ([11]; CHO-P140A cells, read-out: Inactivation of AGT, ED50 after 4 h exposure) is reported as 1.25 µM, the “Increase of ED50 with P140A AGT” value [11] is reported as 25 fold and the IC50 ([12]; CHO-G156A cells, read-out: Inactivation of AGT, ED50 after 4 h exposure) is reported as 5 µM. For the same compound, the “Increase of ED50 with G156A AGT” value [12] was 100 fold, the “concentrations reducing colony formation” value [19] was “above 30 μM” and the “concentration required to reduce colony formation to <1 per 1000 cells plated” value [13] was “about 5 μM”. For the same compound, the “concentration needed to reduce colony formation to <1 per 1000 cells plated” value [14] was “More than 25 μM”, the “concentration required to sensitize cells to BCNU” value ([15]; with 80 μM BCNU) was > 40 µM and the IC50 [16] was 0.02 µM. The IC50 [20] was 0.05 µM.
